Assay results published in PMC4764904 (Scientific Reports, 2016).
Marks after values point to notes of the source that are not given here. Where a SMILES comes first, the peptide text is derived from it. Where no end group is shown, it is not given here. [ ]: non-standard residue; d: D form.

Legend:
[1] = Peptide stability in FBS by residual IP3 production; type: in vitro ADME, bovine; conditions: peptide 1 μM in 100% FBS, 37 °C, 0, 3, 6, 12, 24, 48, 72 h; residual activity read as IP3 production ([3H]-inositol) in HEK293 cells expressing GALR2; mean ± S.E., at least three independent experiments
Experimental: (§1) To investigate the effects of the modifications on proteolytic susceptibility, the functional activity of peptides that were incubated in 100% serum at 37 °C for 0, 3, 6, 12, 24, 48, and 72 h was determined via inositol 1,4,5-triphosphate (IP3) production in GALR2-expressing cells (Fig. 4A–C and Table 3). […] In addition, dAla4 and dGln14 substitutions contribute to longer longevity of the peptide in serum. In an additional experiment, we examined the degradation rates of the Qu mutant, as well as the Qu mutant with an N-terminal modification and/or dAla4 and dGln14 substitutions.
(§2) Figure 4 Stability of SPX mutants in the presence of FBS (A) Qu analogs in FBS (B) and human serum (C). Potency of Qu mutants toward GALR2 (D) and GALR3 (E). For stability of SPX mutants, peptides (1 μM) were incubated in serum for 0, 3, 6, 12, 24, 48, and 72 hrs. The remaining activities of the peptides were determined by measuring IP3 production by HEK293 cells that express GALR2 after the indicated times. IP3 production was expressed as percent change, where 100% indicates IP3 production by WT SPX incubated in FBS or human serum for 0 h. For potency of Qu mutants toward GALR2 and GALR3, the SRE-luc reporter vector and plasmid containing human GALR2 or GALR3 were transfected into HEK293 cells that stably expressed Gqi protein. Cells were then treated with increasing concentrations of mutant peptides, and the receptor activities were determined using the SRE-luc reporter system.
(§3) To evaluate the stability of SPX and its analogs in FBS or human serum, peptides were incubated at an initial concentration of 1 μM in 100% serum at 37 °C for 0, 3, 6, 12, 24, 48, and 72 hours. Residual peptide activity was then assessed by measuring IP3 in HEK293 cells expressing GALR2. For the IP3 assay, cells were seeded in 12-well plates at a density of 2.5 × 10^5 cells per well, and then the next day, cells were transiently transfected with 1 μg/well of plasmid containing GALR2 using the Lipofectamine 2000 (Invitrogen) transfection reagent. The day following transfection, cells were incubated in M199 media containing 1% FBS, 1% L-glutamine, 1% penicillin/streptomycin, and 1 μCi/well of myo-^3H inositol for 20 h. After a 30-min incubation in buffer A (140 mM NaCl, 20 mM Hepes, 4 mM KCl, 8 mM D-glucose, 1 mM MgCl2, 1 mM CaCl2, 1 mg/ml free fatty acid bovine serum albumin (BSA), and 10 mM LiCl at pH 7.2), cells were treated with the agonist for 40 min at 37 °C. Media was removed, and the reactions were terminated by addition of 1 ml of 10 mM cold formic acid to each well. The plates were stored at 4 °C for 30 min, and the extracts were then transferred into 6-ml plastic tubes containing 500 μl AG1–8X anion exchange columns (BIO-RAD). The tubes were gently mixed with a vortexer, and the supernatants were removed by aspiration. Two washes with 1 ml of distilled water were performed followed by two additional washes with 60 mM ammonium formate/5mM sodium tetraborate. Tritiated inositol was separated from the column by elution with 1 ml of 1 M ammonium formate/0.1 M formic acid, and 800 μl from the elution were taken from each tube and transferred into 6-ml scintillation vials. Then, 2 ml of scintillation cocktail solution (Ultima Gold^TM, Perkin Elmer, Waltham MA, USA) was added to each sample. The radioactivity of [^3H]-myo-inositol samples was measured using a TRI carb 3100TR liquid scintillation analyzer (Packard).

[2] = Peptide stability in human serum by residual IP3 production; type: in vitro ADME; conditions: peptide 1 μM in 100% human serum, 37 °C, 0, 3, 6, 12, 24, 48, 72 h; residual activity read as IP3 production ([3H]-inositol) in HEK293 cells expressing GALR2; mean ± S.E., at least three independent experiments
Experimental: as §1, §2, §3

[3] = target: T1, human GALR3 (Homo sapiens, UniProt O60755); test: SRE-luc reporter assay, GALR3;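 further: luciferase activity read in cell lysates across rising peptide concentrations, EC50 being the agonist concentration giving half-maximal stimulation from a sigmoidal nonlinear fit, Gαqi routing Gi-coupled receptor signaling through Gq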; type: cell-based; conditions: HEK293-Gqi cells transfected with SRE-luc and human GALR3; 6 h ligand treatment; mean ± S.E. of at least three independent experiments; NM = not measurable; read-out: GALR3 EC50
T1 construct: host or cells: HEK293 cells stably expressing Gαqi
T1 sequence (O60755 1-368): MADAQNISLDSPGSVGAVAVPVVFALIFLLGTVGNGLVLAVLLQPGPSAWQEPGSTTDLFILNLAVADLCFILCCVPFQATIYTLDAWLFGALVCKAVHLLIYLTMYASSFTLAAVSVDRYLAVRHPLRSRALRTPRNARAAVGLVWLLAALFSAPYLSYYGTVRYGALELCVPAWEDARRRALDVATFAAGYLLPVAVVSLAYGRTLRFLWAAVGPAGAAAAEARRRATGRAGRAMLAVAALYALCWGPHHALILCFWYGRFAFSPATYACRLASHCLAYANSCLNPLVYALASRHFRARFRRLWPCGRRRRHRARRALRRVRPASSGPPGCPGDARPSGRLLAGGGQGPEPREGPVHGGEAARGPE
Experimental: (§4) The generated mutant SPX peptides were incubated with cells expressing GALR2 and GALR3. […] The activities of the receptors were traced using the serum-response element-driven luciferase (SRE-luc) assay system.
(§5) The SRE-luc reporter vector and plasmid containing human GALR1, GALR2, or GALR3 were transfected into HEK293 cells that stably expressed Gqi protein. Cells were then treated with increasing concentrations of mutant peptides, and the receptor activities were determined using the SRE-luc reporter system.
(§6) HEK293 cells stably expressing Gαqi, which mediates Gαi-coupled receptor activation by stimulating Gαq-dependent signaling pathways[59], were maintained in Dulbecco’s modified Eagle’s medium (DMEM) supplemented with 10% FBS, 100 U/ml penicillin G, and 100 μg/ml streptomycin (Invitrogen). Cells were seeded in 48-well plates at a density of 2 × 10^4 cells per well, one day before transfection. A mixture containing 75 ng of the SRE-luc reporter construct, 75 ng of expression plasmid, and 2 μl of Effectene reagent (Qiagen, Chatsworth, CA, USA) was prepared and added to each well according to the manufacturer’s instructions. Cells were then maintained in serum-free DMEM for 16–18 h before treatment with the ligands. Approximately 48 h after transfection, cells were treated with the respective ligands for 6 h. Cells were lysed by the addition of 100 μl lysis buffer. The luciferase activity in 50 μl of cell extract was determined by a luciferase assay system according to the standard protocol for the Synergy 2 Multi-Mode Microplate Reader (BioTek, Winooski, VT, USA).
(§7) For in vitro studies data analysis was performed by nonlinear regression with a sigmoidal dose-response. The agonist concentrations that induced half-maximal stimulation (EC50) or half-maximal inhibition of binding (IC50) were calculated with GraphPad PRISM4 software (GraphPad Software Inc., San Diego, CA, USA). […] All data are presented as mean ± S.E. of at least three independent experiments and a P value of P < 0.05 was considered statistically significant.

[4] = target: T2, human GALR2 (Homo sapiens, UniProt O43603); test: SRE-luc reporter assay, GALR2;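 further: luciferase activity read in cell lysates after exposure to rising peptide concentrations, EC50 being the agonist level giving half-maximal stimulation from a sigmoidal nonlinear regression fit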; type: cell-based; conditions: HEK293-Gqi cells transfected with SRE-luc and human GALR2; 6 h ligand treatment; mean ± S.E. of at least three independent experiments; NM = not measurable; read-out: GALR2 EC50
T2 construct: host or cells: HEK293 cells stably expressing Gαqi
T2 sequence (O43603 1-387): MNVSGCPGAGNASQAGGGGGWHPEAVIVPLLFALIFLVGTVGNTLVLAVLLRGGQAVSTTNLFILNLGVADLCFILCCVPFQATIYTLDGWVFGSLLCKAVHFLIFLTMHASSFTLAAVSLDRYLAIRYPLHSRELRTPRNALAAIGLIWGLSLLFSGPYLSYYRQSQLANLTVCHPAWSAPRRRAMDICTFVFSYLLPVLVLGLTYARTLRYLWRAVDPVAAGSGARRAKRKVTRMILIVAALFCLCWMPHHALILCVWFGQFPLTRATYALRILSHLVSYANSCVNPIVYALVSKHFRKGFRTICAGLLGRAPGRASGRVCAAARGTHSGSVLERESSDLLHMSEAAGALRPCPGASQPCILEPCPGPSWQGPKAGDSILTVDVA
Experimental: as §4, §5, §6, §7

| Half-life activity (h) in FBS [1] | Half-life activity (h) in Human Serum [2] | EC50 [3] [µM] | EC50 [4] [µM] | Compound |
| --- | --- | --- | --- | --- |
| 4.2 ± 0.1 ^a h | 2.9 ± 0.1 ^a h |  |  | CC(C)C[C@H](NC(=O)[C@H](C)NC(=O)[C@H](C)NC(=O)[C@H](CC(N)=O)NC(=O)[C@@H]1CCCN1C(=O)[C@@H](NC(=O)[C@H](Cc1c[nH]c2ccccc12)NC(=O)[C@H](N)CC(N)=O)[C@@H](C)O)C(=O)N[C@@H](Cc1ccc(O)cc1)C(=O)N[C@@H](CC(C)C)C(=O)N[C@@H](Cc1ccccc1)C(=O)NCC(=O)N1CCC[C@H]1C(=O)N[C@@H](CCC(N)=O)C(N)=O [dN1-Qu] (H-[dN]WTPNAALYLFGPQ-NH2) |
| 2.6 ± 0.2 h | 2.0 ± 0.2 h | > 10 | 0.055 ± 0.00924 | NWTPNAALYLFGPQ-NH2 [N5A7F11P13(Qu)] |
